Data taken from patent US20050181467A1, “ATP extraction method” (priority 2000, published 2005).

Target: luciferase (Photinus pyralis, UniProt P08659)
Assay: ATP-luciferin-luciferase assay (light intensity, luminometer)
Assay type: biochemical, firefly
Details: for effect on light intensity: diluted concentrations compared with the positively charged extractant, 5; for neutralizing the inhibitory effect(s) of commonly employed extractants on the ATP-luciferin-luciferase light reaction: overall conclusion, SDS at the proper concentrations
Method: ATP-luciferin-luciferase assays were conducted to determine the effect of the following on assay activity: (1) Tween® 20 (2% Tween® 20 in 50 mM tricene buffer, pH 6.75), (2) MgSO4 (0.229 g/L in 50 mM tricene buffer, pH 7.46), (3) SDS (0.268 g/L in 50 mM tricene buffer, pH 7.61) and (4) a combination of MgSO4 and various amounts of Tween®. Each of these substances were assayed alone and in the presence of a commonly used positively charged ATP extractant, i.e., benzalkonium chloride (0.3325 g/L). Many of the assays were conducted in the presence of the following sanitizers: Ster-Bac® (1 oz/4 gal); Ster-Bac® (2.5 ml/L); XY-12 (200 ppm); XY-12 (600 ppm); Simplex Quat (1 oz/gal); Kleer-Mor® (1 oz/2 gal); and Kleer-Mor® (4 oz/2 gal). The MgSO4 and SDS assays were conducted using molar concentrations of MgSO4 and SDS equal to that of the positively charged extractant, as well as using molar concentrations of MgSO4 and SDS diluted as compared to that of the positively charged extractant.
Depending on the substance being tested, sanitizer, neutralizer (i.e., Tween® 20, MgSO4 or SDS), ATP solution, luciferin/luciferase cocktail, extractant and/or benzalkonium chloride (in various combinations) were placed in a cuvette and light intensity was read. Each sanitizer was run in duplicate. A control tube containing buffer and ATP was also run. Light output was measured in a Monolight 3010 luminometer. Each experiment was conducted in total volume of 0.42 ml in the curvette.

Sequence of luciferase (P08659 whole entry, species assumed): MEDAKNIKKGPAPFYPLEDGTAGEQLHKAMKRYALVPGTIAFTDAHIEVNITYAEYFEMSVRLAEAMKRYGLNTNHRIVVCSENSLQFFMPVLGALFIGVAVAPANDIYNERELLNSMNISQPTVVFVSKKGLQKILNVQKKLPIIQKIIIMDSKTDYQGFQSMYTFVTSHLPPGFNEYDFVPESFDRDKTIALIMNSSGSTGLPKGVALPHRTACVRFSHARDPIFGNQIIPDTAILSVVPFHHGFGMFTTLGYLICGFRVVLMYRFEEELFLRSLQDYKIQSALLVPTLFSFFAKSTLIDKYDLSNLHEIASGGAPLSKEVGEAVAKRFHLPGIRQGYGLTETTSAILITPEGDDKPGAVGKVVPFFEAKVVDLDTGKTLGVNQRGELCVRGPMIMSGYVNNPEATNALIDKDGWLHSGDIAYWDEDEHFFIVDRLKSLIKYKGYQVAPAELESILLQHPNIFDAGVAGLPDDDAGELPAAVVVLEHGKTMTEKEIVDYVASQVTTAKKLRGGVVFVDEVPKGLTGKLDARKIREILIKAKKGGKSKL

O=S(=O)([O-])[O-].[Mg+2] [MgSO4, magnesium sulfate]
effect on light intensity (FIGS. 4A-4C): increased light intensity over the undiluted MgSO4 | performance as neutralizer compared with SDS (intensity of light) (equal concentrations of neutralizer and extractant, with sanitizer, with extractant and alone, FIG. 3): performed better than SDS in all assays | performance as neutralizer compared with Tween 20 (intensity of light) (equal concentrations of neutralizer and positively charged extractant (benzalkonium chloride), various sanitizers, FIGS. 1 and 2): performed better than Tween® 20 as a neutralizer for all sanitizers except one | neutralizing the effects of sanitizer (extractant, sanitizer and ATP-luciferin-luciferase solution, FIGS. 6A, 6B): works at least as well and, in most cases, better than Tween® 20 | neutralizing the inhibitory effect(s) of commonly employed extractants on the ATP-luciferin-luciferase light reaction: more effective than Tween® 20

CCCCCCCCCCCCOS(=O)(=O)[O-].[Na+] [SDS, sodium dodecyl sulfate]
neutralizing the inhibitory effects of benzalkonium chloride (diluted 1:2 or more compared with the extractant, FIGS. 4A-4C): effective in neutralizing the inhibitory effects of benzalkonium chloride | effect on light intensity (FIGS. 4A-4C): did not affect (inhibit) light intensity | effect on the light reaction (equal concentrations of neutralizer and positively charged extractant, FIG. 3): not effective and inhibited the light reaction | neutralizing the inhibitory effect(s) of commonly employed extractants on the ATP-luciferin-luciferase light reaction: neutralizes the inhibitory effect(s) | effect on the light reaction at too high a concentration (present at too high a concentration): completely eliminate the light reaction
